Data from patent publication US8129530B2, “Catecholamine derivatives and prodrugs thereof” (H. Lundbeck A/S, priority 2007, dated 2012).

How the values were obtained:
[1] = tested on: mouse model of severe dopamine depletion; test: Superiority model; assay type: in vivo; settings: mice
From the text: Both Apomorphine and L-DOPA stimulate D1 and D2-like dopamine receptors.

PD patients = settings: intravenous (IV); cited from earlier work

SMILES: N[C@@H](Cc1ccc(O)c(O)c1)C(=O)O [L-DOPA, (levo)-3,4-dihydroxy phenylalanine]
- reversal of motility deficits / restoration of locomotion [1]: able to reverse motility deficits

SMILES: CCCc1cc2c(s1)CN[C@@H]1CCc3cc(OC(C)=O)c(OC(C)=O)cc3[C@@H]21 [Adrogolide]
- antiparkinson efficacy (PD patients): comparable to that of L-DOPA

SMILES: CN1CCc2cccc3c2[C@H]1Cc1ccc(O)c(O)c1-3 [Apomorphine]
- reversal of motility deficits / restoration of locomotion [1]: able to reverse motility deficits
